Data from US20100144700A1, “HETEROCYCLIC-CARBONYL-DIAZABICYCLOALKANES AS MODULATORS OF THE NEURONAL NICOTINIC ACETYLCHOLINE ALPHA 4 BETA 2, SUBTYPE RECEPTOR FOR THE TREATMENT OF CNS RELATED DISORDERS” (TARGACEPT, INC., priority 2007, published 2010).
pKi: −log10 of the molar value.

Each compound was assayed against T1, α7 nAChR Subtype (Rattus norvegicus, UniProt Q05941) (assay: Radioligand binding ([3H]MLA) at α7 nAChR subtype, rat hippocampus membranes; HTS at 5 μM). Details: 5 μM compound, 5 nM 3H-MLA; read-out: α7 high throughput screening (HTS) binding.
T1 construct: The hippocampus was removed and placed in 10 volumes (weight:volume) of ice-cold preparative buffer; from tissue; host or cells: rat hippocampus membranes
T1 sequence (Q05941 23-502): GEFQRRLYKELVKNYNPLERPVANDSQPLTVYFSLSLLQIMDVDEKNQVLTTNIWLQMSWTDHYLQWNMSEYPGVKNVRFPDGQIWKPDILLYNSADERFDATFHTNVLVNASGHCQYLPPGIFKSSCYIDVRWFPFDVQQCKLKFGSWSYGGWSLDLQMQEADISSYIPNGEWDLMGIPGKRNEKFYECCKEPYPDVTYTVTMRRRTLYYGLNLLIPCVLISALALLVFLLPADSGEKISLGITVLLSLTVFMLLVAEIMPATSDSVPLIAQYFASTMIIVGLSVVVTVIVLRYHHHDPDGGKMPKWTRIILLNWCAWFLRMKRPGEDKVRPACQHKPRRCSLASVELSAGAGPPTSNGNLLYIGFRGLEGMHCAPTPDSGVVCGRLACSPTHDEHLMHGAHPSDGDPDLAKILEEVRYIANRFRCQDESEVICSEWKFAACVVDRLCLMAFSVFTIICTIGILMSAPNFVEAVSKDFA
Method: Rats (female, Sprague-Dawley), weighing 150-250 g, were maintained on a 12 h light/dark cycle and were allowed free access to water and food supplied by PMI Nutrition International, Inc. Animals were anesthetized with 70% CO2, then decapitated. Brains were removed and placed on an ice-cold platform. The hippocampus was removed and placed in 10 volumes (weight:volume) of ice-cold preparative buffer (137 mM NaCl, 10.7 mM KCl, 5.8 mM KH2PO4, 8 mM Na2HPO4, 20 mM HEPES (free acid), 5 mM iodoacetamide, 1.6 mM EDTA, pH 7.4); PMSF, dissolved in methanol to a final concentration of 100 μM, was added and the tissue suspension was homogenized by Polytron. The homogenate was centrifuged at 18,000×g for 20 min at 4° C. and the resulting pellet was re-suspended in 10 volumes of ice-cold water. After 60 min incubation on ice, a new pellet was collected by centrifugation at 18,000×g for 20 min at 4° C. The final pellet was re-suspended in 10 volumes of buffer and stored at −20° C. On the day of the assay, tissue was thawed, centrifuged at 18,000×g for 20 min, and then re-suspended in ice-cold PBS (Dulbecco's Phosphate Buffered Saline, 138 mM NaCl, 2.67 mM KCl, 1.47 mM KH2PO4, 8.1 mM Na2HPO4, 0.9 mM CaCl2, 0.5 mM MgCl2, Invitrogen/Gibco, pH 7.4) to a final concentration of approximately 2 mg protein/mL. Protein was determined by the method of Lowry et al., J. Biol. Chem. 193: 265 (1951), using bovine serum albumin as the standard.
The binding of [^3H]MLA was measured using a modification of the methods of Davies et al., Neuropharmacol. 38: 679 (1999). [^3H]MLA (Specific Activity=25-35 Ci/mmol) was obtained from Tocris. The binding of [^3H]MLA was determined using a 2 h incubation at 21° C. Incubations were conducted in 48-well micro-titre plates and contained about 200 μg of protein per well in a final incubation volume of 300 μL. The incubation buffer was PBS and the final concentration of [^3H]MLA was 5 nM. The binding reaction was terminated by filtration of the protein containing bound ligand onto glass fiber filters (GF/B, Brandel) using a Brandel Tissue Harvester at room temperature. Filters were soaked in de-ionized water containing 0.33% polyethyleneimine to reduce non-specific binding. Each filter was washed with PBS (3×1 mL) at room temperature. Non-specific binding was determined by inclusion of 50 μM non-radioactive MLA in selected wells.
[…] Each concentration was replicated in triplicate. […] […] Pharmacol. 22: 3099-3108 (1973).

SMILES	inhibition at 5 µM [%]
O=C(c1cnco1)N1C[C@@H]2CN[C@@H](C2)C1	≤ 50
N#Cc1coc(C(=O)N2C[C@@H]3CN[C@@H](C3)C2)c1	≤ 50
Cc1coc(C(=O)N2C[C@@H]3CN[C@@H](C3)C2)c1	≤ 50
O=C(c1cccnc1)N1CC2CNC(C2)C1 (stereo not drawn)	≤ 50
O=C(c1ccco1)N1CCC2CNCC21 (stereo not drawn)	≤ 50
Cc1cc(C(=O)N2C[C@@H]3CN[C@@H](C3)C2)on1	≤ 50
O=C(c1ccco1)N1CC2CNC(C2)C1 (stereo not drawn)	≤ 50
O=C(c1ccco1)N1C[C@H]2CN[C@H](C2)C1	≤ 50
Cc1ncoc1C(=O)N1CC2CCNCC2C1 (stereo not drawn)	≤ 50
Cc1ncoc1C(=O)N1C[C@H]2CN[C@H](C2)C1	≤ 50
Cc1ncoc1C(=O)N1CC2CNCCC21 (stereo not drawn)	≤ 50
Cc1cc(C(=O)N2C[C@@H]3CN[C@@H](C3)C2)no1	≤ 50
O=C(c1ccno1)N1C[C@@H]2CN[C@@H](C2)C1	≤ 50
O=C(c1ccc(Br)o1)N1CC2CNC(C2)C1 (stereo not drawn)	≤ 50
Cc1nocc1C(=O)N1CC2CCNC2C1 (stereo not drawn)	≤ 50
O=C(c1cc(Br)no1)N1CC2CNCC1C2 (stereo not drawn)	≤ 50
O=C(c1ccno1)N1C[C@H]2CN[C@H](C2)C1	≤ 50
O=C(c1ccc(F)o1)N1C[C@H]2CN[C@H](C2)C1	≤ 50
O=C(c1cnco1)N1C[C@H]2CN[C@H](C2)C1	≤ 50
O=C(c1cccs1)N1C[C@H]2CN[C@H](C2)C1	≤ 50
Cc1ncoc1C(=O)N1CCC2NCC2C1 (stereo not drawn)	≤ 50
Cc1nocc1C(=O)N1C[C@H]2CN[C@H](C2)C1	≤ 50

These compounds were tested against T2, α4β2 nAChR Subtype (Rattus norvegicus, UniProt P09483+P12390) (assay: Radioligand binding ([3H]nicotine) at rat α4β2 nAChR subtype, rat cerebral cortex membranes). Details: not given.
T2 construct: The cerebral cortex was removed and placed in 20 volumes (weight:volume) of ice-cold preparative buffer; from tissue; host or cells: rat cerebral cortex membranes
T2 sequence (P09483 31-630): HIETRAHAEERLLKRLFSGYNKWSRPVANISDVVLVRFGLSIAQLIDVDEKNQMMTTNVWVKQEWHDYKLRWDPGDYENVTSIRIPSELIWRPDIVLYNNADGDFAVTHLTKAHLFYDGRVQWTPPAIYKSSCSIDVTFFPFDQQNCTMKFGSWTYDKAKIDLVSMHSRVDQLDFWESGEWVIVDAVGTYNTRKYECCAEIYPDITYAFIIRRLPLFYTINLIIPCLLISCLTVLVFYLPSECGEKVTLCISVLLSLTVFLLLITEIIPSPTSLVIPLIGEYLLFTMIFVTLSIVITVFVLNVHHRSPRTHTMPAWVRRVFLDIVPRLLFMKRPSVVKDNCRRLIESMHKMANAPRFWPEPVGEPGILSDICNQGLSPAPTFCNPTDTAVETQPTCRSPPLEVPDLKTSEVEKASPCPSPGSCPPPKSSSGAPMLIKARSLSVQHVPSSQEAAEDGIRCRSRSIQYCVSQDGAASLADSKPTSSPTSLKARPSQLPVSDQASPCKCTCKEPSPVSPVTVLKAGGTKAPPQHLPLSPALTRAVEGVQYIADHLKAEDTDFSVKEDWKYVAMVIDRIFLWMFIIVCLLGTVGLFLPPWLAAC
T2 sequence (P12390 25-500): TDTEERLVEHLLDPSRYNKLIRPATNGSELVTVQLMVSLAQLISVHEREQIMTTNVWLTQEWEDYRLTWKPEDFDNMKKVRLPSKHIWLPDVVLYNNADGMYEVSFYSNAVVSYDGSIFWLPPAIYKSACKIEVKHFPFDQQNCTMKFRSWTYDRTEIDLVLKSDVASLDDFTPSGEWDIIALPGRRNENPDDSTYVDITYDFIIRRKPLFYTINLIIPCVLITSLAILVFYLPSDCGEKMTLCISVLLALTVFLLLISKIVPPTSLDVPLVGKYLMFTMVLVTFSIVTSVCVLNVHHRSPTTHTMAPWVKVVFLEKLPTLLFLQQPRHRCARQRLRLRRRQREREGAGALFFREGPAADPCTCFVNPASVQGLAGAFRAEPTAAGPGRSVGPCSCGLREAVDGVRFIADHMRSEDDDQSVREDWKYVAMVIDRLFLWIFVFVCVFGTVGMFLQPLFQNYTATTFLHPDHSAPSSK
Method: Rats (female, Sprague-Dawley), weighing 150-250 g, were maintained on a 12 h light/dark cycle and were allowed free access to water and food supplied by PMI Nutrition International, Inc. Animals were anesthetized with 70% CO2, then decapitated. Brains were removed and placed on an ice-cold platform. The cerebral cortex was removed and placed in 20 volumes (weight:volume) of ice-cold preparative buffer (137 mM NaCl, 10.7 mM KCl, 5.8 mM KH2PO4, 8 mM Na2HPO4, 20 mM HEPES (free acid), 5 mM iodoacetamide, 1.6 mM EDTA, pH 7.4); PMSF, dissolved in methanol to a final concentration of 100 μM, was added and the suspension was homogenized by Polytron. The homogenate was centrifuged at 18,000×g for 20 min at 4° C. and the resulting pellet was re-suspended in 20 volumes of ice-cold water. After 60 min incubation on ice, a new pellet was collected by centrifugation at 18,000×g for 20 min at 4° C. The final pellet was re-suspended in 10 volumes of buffer and stored at −20° C. On the day of the assay, tissue was thawed, centrifuged at 18,000×g for 20 min, and then re-suspended in ice-cold PBS (Dulbecco's Phosphate Buffered Saline, 138 mM NaCl, 2.67 mM KCl, 1.47 mM KH2PO4, 8.1 mM Na2HPO4, 0.9 mM CaCl2, 0.5 mM MgCl2, Invitrogen/Gibco, pH 7.4) to a final concentration of approximately 4 mg protein/mL. Protein was determined by the method of Lowry et al., J. Biol. Chem. 193: 265 (1951), using bovine serum albumin as the standard.
The binding of [^3H]nicotine was measured using a modification of the methods of Romano et al., Science 210: 647 (1980) and Marks et al., Mol. Pharmacol. 30: 427 (1986). The [^3H]nicotine (Specific Activity=81.5 Ci/mmol) was obtained from NEN Research Products. The binding of [^3H]nicotine was measured using a 3 h incubation at 4° C. Incubations were conducted in 48-well micro-titre plates and contained about 400 μg of protein per well in a final incubation volume of 300 μL. The incubation buffer was PBS and the final concentration of [^3H]nicotine was 5 nM. The binding reaction was terminated by filtration of the protein containing bound ligand onto glass fiber filters (GF/B, Brandel) using a Brandel Tissue Harvester at 4° C. Filters were soaked in de-ionized water containing 0.33% polyethyleneimine to reduce non-specific binding. Each filter was washed with ice-cold buffer (3×1 mL). Non-specific binding was determined by inclusion of 10 μM non-radioactive L-nicotine (Acros Organics) in selected wells.
The inhibition of [^3H]nicotine binding by test compounds was determined by including seven different concentrations of the test compound in selected wells. Each concentration was replicated in triplicate. IC50 values were estimated as the concentration of compound that inhibited 50 percent of specific [^3H]nicotine binding. Inhibition constants (Ki values), reported in nM, were calculated from the IC50 values using the method of Cheng et al., Biochem. Pharmacol. 22: 3099 (1973).

SMILES	pKi
O=C(c1cnco1)N1C[C@@H]2CN[C@@H](C2)C1	7.15
N#Cc1coc(C(=O)N2C[C@@H]3CN[C@@H](C3)C2)c1	7.63
Cc1coc(C(=O)N2C[C@@H]3CN[C@@H](C3)C2)c1	7.53
O=C(c1ccco1)N1CC2CNC(C2)C1 (stereo not drawn)	7.72
O=C(c1ccco1)N1C[C@H]2CN[C@H](C2)C1	7.97
Cc1ncoc1C(=O)N1C[C@H]2CN[C@H](C2)C1	8.05
O=C(c1ccno1)N1C[C@@H]2CN[C@@H](C2)C1	7.57
O=C(c1ccc(Br)o1)N1CC2CNC(C2)C1 (stereo not drawn)	7.84
O=C(c1ccno1)N1C[C@H]2CN[C@H](C2)C1	7.99
O=C(c1ccc(F)o1)N1C[C@H]2CN[C@H](C2)C1	8.07
O=C(c1cnco1)N1C[C@H]2CN[C@H](C2)C1	7.89
O=C(c1cccs1)N1C[C@H]2CN[C@H](C2)C1	8.23
Cc1nocc1C(=O)N1C[C@H]2CN[C@H](C2)C1	7.25

Same assay, conditions: [3H]nicotine 5 nM, rat cortex; read-out: Rat α4β2 Ki

SMILES	pKi
O=C(c1ccco1)N1CCC2CNCC21 (stereo not drawn)	6.22
Cc1cc(C(=O)N2C[C@@H]3CN[C@@H](C3)C2)on1	6.98
Cc1ncoc1C(=O)N1CC2CCNCC2C1 (stereo not drawn)	6.02
Cc1cc(C(=O)N2C[C@@H]3CN[C@@H](C3)C2)no1	6.07
Cc1nocc1C(=O)N1CC2CCNC2C1 (stereo not drawn)	6.65
O=C(c1cc(Br)no1)N1CC2CNCC1C2 (stereo not drawn)	6.77

What follows are compounds tested against Human α4β2 (Homo sapiens, UniProt P17787+P43681) (assay: Binding at human α4β2 subtype (Table 1)). Details: not given.
Sequence of Human α4β2 (P43681 29-627 limits assumed): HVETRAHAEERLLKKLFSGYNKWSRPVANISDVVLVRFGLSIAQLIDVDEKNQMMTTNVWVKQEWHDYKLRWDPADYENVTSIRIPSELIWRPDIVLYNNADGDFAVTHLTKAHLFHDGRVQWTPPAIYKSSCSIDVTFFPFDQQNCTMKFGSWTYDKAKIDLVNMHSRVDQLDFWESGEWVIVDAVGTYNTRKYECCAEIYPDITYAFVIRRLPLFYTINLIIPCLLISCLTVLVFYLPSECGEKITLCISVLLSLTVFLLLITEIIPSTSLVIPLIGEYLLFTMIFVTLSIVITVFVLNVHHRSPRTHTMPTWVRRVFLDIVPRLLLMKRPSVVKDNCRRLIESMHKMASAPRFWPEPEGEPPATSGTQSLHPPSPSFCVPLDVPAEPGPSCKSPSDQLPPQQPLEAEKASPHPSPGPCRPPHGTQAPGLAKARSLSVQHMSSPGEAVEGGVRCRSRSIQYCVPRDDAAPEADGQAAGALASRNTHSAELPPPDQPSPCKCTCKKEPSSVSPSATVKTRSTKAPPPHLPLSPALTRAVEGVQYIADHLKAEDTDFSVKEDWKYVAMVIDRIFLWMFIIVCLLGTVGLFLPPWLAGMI
Sequence of Human α4β2 (P17787 26-502): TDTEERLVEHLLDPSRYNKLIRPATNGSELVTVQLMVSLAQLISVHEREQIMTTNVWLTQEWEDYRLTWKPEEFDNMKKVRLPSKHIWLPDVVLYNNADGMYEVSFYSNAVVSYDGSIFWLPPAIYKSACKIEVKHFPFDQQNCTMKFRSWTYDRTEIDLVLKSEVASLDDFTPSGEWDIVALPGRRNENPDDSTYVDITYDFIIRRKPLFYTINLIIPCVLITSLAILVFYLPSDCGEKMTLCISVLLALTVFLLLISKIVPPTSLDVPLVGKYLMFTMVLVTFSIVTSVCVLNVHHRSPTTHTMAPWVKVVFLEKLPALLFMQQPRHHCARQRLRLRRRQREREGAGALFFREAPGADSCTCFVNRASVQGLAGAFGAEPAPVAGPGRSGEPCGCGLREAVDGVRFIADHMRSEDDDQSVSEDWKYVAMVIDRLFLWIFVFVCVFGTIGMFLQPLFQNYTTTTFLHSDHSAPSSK

SMILES	pKi
Cc1cc(C(=O)N2C[C@@H]3CN[C@@H](C3)C2)on1	7.12
O=C(c1cc(Br)no1)N1CC2CNCC1C2 (stereo not drawn)	7.84

Same assay, conditions: read-out: Human α4β2 Ki

SMILES	pKi
O=C(c1cnco1)N1C[C@@H]2CN[C@@H](C2)C1	7.07
N#Cc1coc(C(=O)N2C[C@@H]3CN[C@@H](C3)C2)c1	7.31
Cc1coc(C(=O)N2C[C@@H]3CN[C@@H](C3)C2)c1	7.29
O=C(c1cccnc1)N1CC2CNC(C2)C1 (stereo not drawn)	6.44
O=C(c1ccco1)N1CCC2CNCC21 (stereo not drawn)	6.07
O=C(c1ccco1)N1CC2CNC(C2)C1 (stereo not drawn)	7.62
O=C(c1ccco1)N1C[C@H]2CN[C@H](C2)C1	7.88
Cc1ncoc1C(=O)N1CC2CCNCC2C1 (stereo not drawn)	6.67
Cc1ncoc1C(=O)N1C[C@H]2CN[C@H](C2)C1	8.34
Cc1ncoc1C(=O)N1CC2CNCCC21 (stereo not drawn)	6.29
Cc1cc(C(=O)N2C[C@@H]3CN[C@@H](C3)C2)no1	6.30
O=C(c1ccno1)N1C[C@@H]2CN[C@@H](C2)C1	7.46
O=C(c1ccc(Br)o1)N1CC2CNC(C2)C1 (stereo not drawn)	9.10
Cc1nocc1C(=O)N1CC2CCNC2C1 (stereo not drawn)	6.19
O=C(c1ccno1)N1C[C@H]2CN[C@H](C2)C1	7.94
O=C(c1ccc(F)o1)N1C[C@H]2CN[C@H](C2)C1	8.16
O=C(c1cnco1)N1C[C@H]2CN[C@H](C2)C1	7.85
O=C(c1cccs1)N1C[C@H]2CN[C@H](C2)C1	8.14
Cc1ncoc1C(=O)N1CCC2NCC2C1 (stereo not drawn)	6.10
Cc1nocc1C(=O)N1C[C@H]2CN[C@H](C2)C1	7.26
